Tests used:
EMT6 mammary tumors = test: Orthotopic EMT6 mammary tumor model; assay type: in vivo, mouse
B16-F10 melanoma = details: VitE and ICT combo-treatment
Method: For the melanoma tumor challenges, 2×10^5 B16-F10, B16-GMCSF, or B16-FLT3L cells were subcutaneously (s.c.) injected into the right flank of C57BL/6J mice on day 0.
Treatments were given as single agents or in combinations with the indicated regimens for each group. VitE (D-α-Tocopherol type VI, Cat.T1539, Sigma-Aldrich) was formulated in the vehicle (10% ethanol in sterile water) and administered by oral gavage once a day at a dose of 50 mg/kg body weight (100 μl at 10 mg/ml per day), corresponding to 400 to 600 mg/day in a human weighing 60 kg, which is within the range of doses recommended for supplement and pharmacological use. VitE treatment was initiated on day 4 ending until the ending point.
For tumor volume analysis, each tumor was measured every 3-4 days with a digital caliper beginning on day 7 after the challenge. Tumor volume was calculated using the formula V=(L×W^2)/2 and expressed as mm^3, where V is tumor volume, L is the length of the tumor (longer diameter) and W is the width of the tumor (shorter diameter). Mice were monitored for tumor growth and survival. Measurements were assessed manually by assessing the longest dimension (length, L) and the longest perpendicular dimension (width, W). Tumor volume was calculated using the formula: (L×W^2)/2.

4T1 tumors = test: Orthotopic 4T1 TNBC tumor model; assay type: in vivo, mouse
Method: FIG. 6A: Diagram of the experimental paradigm (top) and tumor growth curves (bottom) of orthotopic B16-GMCSF tumor in mice vaccinated with or without GVAX (s.c. at day 1, 4, 7), then treated with vehicle or VitE (50 mg/kg/day daily by oral gavage administration from day 4 to day 20) (n=6/group). FIG. 6B: Tumor weight of 4T1 tumors from mice treated with vehicle. GVAX, ICT (200 μg/mouse anti-PDI and 100 μg/mouse anti-CTLA4 by i.p. at day 7, 10, 13), or GVAX+ICT in combination with vehicle or VitE (50 mg/kg/day daily by oral gavage administration from day 4 to day 25) (n=4) at day 25 after tumor inoculation. FIG. 6C: Flow cytometric analysis (left) and quantification (right) of gp70 tetramer+CD8^+ T cells in 4T1 tumors at day 14 post-implantation with indicated treatments (n=5/group). FIG. 6D: Kaplan-Meier survival curve of 4T1 tumor-bearing mice treated with vehicle, low dosage of Doxorubicin (Dox, 5 mg/kg by i.v.). ICT (200 μg/mouse anti-PD1 and 100 μg/mouse anti-CTLA4 by i.p. at day 7, 10, 13). or Dox+ICT along with vehicle or VitE (n=10). FIG. 6E: Measurement of maximal tumor diameter in HY1936 KPC tumor-bearing mice treated with gemcitabine (GEM, 25 mg/kg by i.p.) and ICT (anti-PDI/anti-CTLA4) along with vehicle or VitE (n=5). FIG. 6F: Kaplan-Meier survival curve of HY19636 KPC tumor-bearing mice treated with vehicle, GEM (gemcitabine, 25 mg/kg by i.p.), GEM+ICT (anti-PDI/anti-CTLA4) plus vehicle or VitE (n=6). Error bars, s.e.m. ns, no significant. *P<0.05. ***P<0.001, ****P<0.0001.
Syngeneic orthotopic PDAC tumors were established by surgical implantation.
Control groups received vehicle (PBS) without the active product.
Where indicated, mice were vaccinated subcutaneously on their contralateral flank with either PBS or 1.0×10^6 35 Gy-irradiated GM-CSF-secreting B16 cells or GM-CSF-secreting 4T1 cells (GVAX) on days 1, 4, and 7 post-tumor injections.
For chemo combination treatment, HY19636 KPC tumor-bearing mice were treated with gemcitabine (GEM) at 25 mg/kg body weight by i.p. injection once a week from day 7 and 4T1 TNBC tumor-bearing mice were given with doxorubicin (Dox, 5 mg/kg body weight) by i.v. once a week from day 10. The chemotherapeutic doses and schedules used in this study are below or within the range of the concentrations used in the clinic after converting drug doses between species.

B16-GMCSF melanoma = B16-GMCSF melanoma model; assay type: in vivo, mouse
cancer patients = test: Retrospective analysis of electronic health records of cancer patients receiving ICT (anti-PD-1/PD-L1); assay type: in vivo, human
From the text: FIG. 1A: Percentages of deceased cancer patients taking dietary nutritional supplements during ICT treatment (Anti-PD-1/PDL1: Pembrolizumab/Atezolizumab) (n=7,667 including 1,888 breast cancer patients, 2,715 melanoma patients, and 3,064 prostate cancer patients). Each bar represents a group of patients who took one type of nutritional supplement along with ICT (Red dashed line indicated the median percentage of deceased cancer patients in this study). […] FIGS. 1C-1D: Tumor growth curves of orthotopic EMT6 TNBC tumor-bearing Balb/c mice (FIG. 1C, n=5) and orthotopic B16-GMCSF melanoma tumor-bearing C57BL/6 mice (FIG. 1D, left, n=5) treated with vehicle, 50 mg/kg of Vitamin E (VitE), […] anti-PDI (ICT), or Vitamin E+anti-PD1 (VitE+ICT) (n=5). Flow cytometry quantification of Granzyme B^+CD8^+ T cells in tumor tissues at 20 days post-implantation (FIG. 1D. right, n=5). FIG. 1E: Tumor growth curves of orthotopic B16-F10 melanoma tumor-bearing C57BL/6 mice with the indicated treatments (n=5). FIG. 1F: Tumor growth curves of orthotopic B16-FLT3L melanoma tumor-bearing C57BL/6 mice with the indicated treatments (n=5). […]
We retrospectively analyzed electronic health records for the clinical outcomes of cancer patients receiving ICT immunotherapies (anti-PD-1/PD-L1). […]

RAB34 = test: Immunoblot of Rab34 proteins in BMDCs; assay type: cell-based, mouse; details: VitE vs vehicle, 48 hr
[1] = VitE 50 mg/kg and ICT (anti-PD1) combo-treatment
[2] = doxorubicin+ICT+VitE vs doxorubicin+ICT

Cc1c(C)c2c(c(C)c1O)CC[C@@](C)(CCC[C@H](C)CCC[C@H](C)CCCC(C)C)O2 [VitE, D-α-Tocopherol]
average tumor volume at day 15 (EMT6 mammary tumors; BALB/c mice, n=10 per group, vehicle-treated 350 mm^3): 173 mm^3 | pY564-SHP1 level in TADCs (EMT6 mammary tumors; CyTOF, day 15 post-implantation, VitE vs vehicle): reduced the pY564-SHP1 level in TADCs | therapeutic response (EMT6 mammary tumors; [1]): significantly improved therapeutic response | tumor growth (EMT6 mammary tumors; VitE alone vs vehicle-treated group): reduced tumor growth | tumor infiltration of immune cells (CyTOF of CD45+ cells) (EMT6 mammary tumors; VitE treatment vs vehicle): increased the tumor infiltrations of CD11c+DCs and CD8+ T cells | therapeutic effect (B16-F10 melanoma): no therapeutic effect | antitumor effect (tumor weight) (4T1 tumors; VitE 50 mg/kg/day combined with GVAX+ICT): significantly enhanced the antitumor effect | gp70 tetramer-specific CD8+ T cells in tumor (4T1 tumors; VitE added to doxorubicin+ICT): increased the infiltration of tumor-infiltrating gp70) tetramer-specific CD8^+ T cells | survival (4T1 tumors; [2]): substantially prolonged the survival | tumor growth and lung metastasis (4T1 tumors; [2]): inhibited tumor growth and lung metastasis | tumor growth (B16-GMCSF melanoma; GVAX+VitE (50 mg/kg/day oral gavage day 4-20)): significant tumor inhibition | tumor-infiltrating GZMB+CD8+ T cells (B16-GMCSF melanoma; GVAX+VitE, day 14 post-implantation): increased tumor-infiltrating cytolytic GZMB CD8^+ T cells | therapeutic response (B16-GMCSF melanoma; [1]): significantly improved therapeutic response | survival rate of cancer patients (cancer patients; VitE during anti-PD-1/PD-L1 treatment vs any of 14 other dietary or nutritional supplements): significantly improved survival rate | Percentages of deceased cancer patients (cancer patients; took VitE during anti-PD-1/PD-L1 treatment (n=83), patients who did not 21.2% (n=7,574), Fisher P 0.0027): 8.4% | RAB34 expression in BMDCs (RAB34): increased total RAB34 expression

Source: patent publication US20240424019A1, “SHP1 MODIFIED DENDRITIC CELLS AND EXTRACELLULAR VESICLES DERIVED THEREFROM AND ASSOCIATED METHODS” (BOARD OF REGENTS, THE UNIVERSITY OF TEXAS SYSTEM, priority 2021, published 2024)
